Where “and” joins values, the source holds several entries; their conditions need not be identical. Identical values can stand only once. Counter-ions that a name gives are not always drawn. Values belong to the molecule of their own block, whether it stands above or below them.
Tests used:
CYP2B6 mRNA = CYP2B6 mRNA expression in HepG2 cells (RT-PCR, agarose gel); type: cell-based, human; conditions: HepG2, 10 μM, positive control, p < 0.001 vs cell control
CYP2B6 = target: T1, CYP2B6 (Homo sapiens, UniProt P20813); test: Michaelis-Menten kinetics of efavirenz metabolism in HLM
T1 sequence (P20813 1-491): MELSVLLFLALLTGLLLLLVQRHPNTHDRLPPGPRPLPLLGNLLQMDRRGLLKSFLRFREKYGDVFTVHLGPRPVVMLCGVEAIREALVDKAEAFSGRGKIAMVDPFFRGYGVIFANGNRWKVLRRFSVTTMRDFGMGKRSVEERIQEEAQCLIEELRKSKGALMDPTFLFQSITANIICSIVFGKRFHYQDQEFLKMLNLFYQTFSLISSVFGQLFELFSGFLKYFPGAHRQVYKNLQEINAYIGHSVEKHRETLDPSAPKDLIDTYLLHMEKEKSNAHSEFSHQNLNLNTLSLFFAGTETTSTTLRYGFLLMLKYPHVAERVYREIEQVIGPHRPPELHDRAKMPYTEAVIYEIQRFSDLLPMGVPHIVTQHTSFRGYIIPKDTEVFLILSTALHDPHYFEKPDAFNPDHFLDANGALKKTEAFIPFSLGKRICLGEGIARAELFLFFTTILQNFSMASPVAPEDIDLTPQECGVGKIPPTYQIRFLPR

CYP1A2 = test system: CYP1A2; set-up: method as in Pan et al., 2014; conditions: ref Pan et al., 2014; cited from earlier work
[1] = test system: HIV-1 Reverse Transcriptase (RT)-associated RNase H; set-up: method as in Sonar et al., 2017; conditions: in vitro, ref Sonar et al., 2017, cited from earlier work
β-esterases = test: Michaelis-Menten kinetics of rifampicin metabolism in HLM; type: in vitro ADME, human; conditions: pooled HLM
CYP3A enzymes = test system: CYP3A enzymes; set-up: method as in Quintieri et al., 2008; conditions: ref Quintieri et al., 2008; cited from earlier work
[2] = target: T2, rifampicin metabolism (β-esterases) (Homo sapiens, UniProt P22760); test: HLM inhibition assay, rifampicin metabolism to 25-O-desacetyl rifampicin, two-point screening and IC50; type: in vitro ADME; conditions: liver microsomes, pH 7.4, two-point screening, 49.79 μg/ml, read-out: rifampicin metabolism activity reduced by
T2 sequence (P22760 1-399): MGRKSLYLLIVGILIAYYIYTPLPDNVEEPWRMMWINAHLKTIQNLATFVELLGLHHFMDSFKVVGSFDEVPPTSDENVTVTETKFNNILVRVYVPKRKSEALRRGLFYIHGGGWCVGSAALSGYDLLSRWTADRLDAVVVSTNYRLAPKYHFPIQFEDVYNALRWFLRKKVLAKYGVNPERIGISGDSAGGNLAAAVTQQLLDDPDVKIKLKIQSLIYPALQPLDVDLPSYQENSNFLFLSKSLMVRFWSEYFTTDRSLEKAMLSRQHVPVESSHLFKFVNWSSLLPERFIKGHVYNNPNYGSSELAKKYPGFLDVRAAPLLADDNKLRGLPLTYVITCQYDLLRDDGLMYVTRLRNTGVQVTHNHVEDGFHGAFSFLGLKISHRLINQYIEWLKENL
Method: The inhibitory potential of each extract was assessed using two-point screening (20 and 200 μg/ml) and the activity potential was compared with the control incubates (without inhibitor). Neostigmine was used as the internal standard.
Briefly, a standard 200 μl incubation mixture containing the liver microsomes (0.5 mg/ml protein concentration for efavirenz, 0.25 mg/ml protein concentration rifampicin), efavirenz (15 μM)/rifampicin (48 μM) in 0.2M phosphate buffer (pH 7.4) and the basil herb extract (final concentration […] or 200 μg/ml, dissolved in <1% solvent) was incubated at 37°C for 30 min, in triplicates, with master reaction mix comprising of NADPH (final concentration 1.3 mM) and other reaction co-factors such as glucose-6-phosphate (final concentration 1.3 mM), glucose-6-phosphate dehydrogenase (1 U/ml) and magnesium chloride (final concentration 3.3 mM). About 200 μl of chilled ice-cold acetonitrile spiked with neostigmine (20 μM) was used to terminate each reaction. These samples were then centrifuged at 13,000 rpm for 10 min and the supernatants were subjected to HPLC analysis. The mobile phase comprised of water (A): acetonitrile (B) at a flow rate of 0.7 ml min^-1 for efavirenz samples and water (A): methanol (B) at a flow rate of 0.8 ml min^-1 for rifampicin samples. […] The percentage of remaining activity was expressed as in the equation below (equation 2.8.3.1): […]

[3] = test system: UDP glucuronosyltransferases; set-up: method as in Zhang et al., 2005; conditions: different assay conditions, bilirubin as the substrate; ref Zhang et al., 2005; read-out: IC50 reported in a previous HLM study; cited from earlier work
[4] = target: T2, rifampicin metabolism (β-esterases); test: Time-dependent inhibition (TDI) IC50 shift assay in HLM, rifampicin metabolism; type: in vitro ADME; conditions: human liver microsomes, probe rifampicin
Method: The TDI fold-shift was calculated using the ratio of the IC50s of the normal assay IC50(-) to that of the pre-incubation assay IC50(+), with NADPH (equation 2.8.3.2).
Eq. (2.8.3.2) TDIfold-shift=normal assayIC50(−)/pre-incubation assayIC50(+)
Extracts with fold shifts ≥1.5 were classified positive for TDI ([Nomeir et al., 2004]).

fold induction of CYP2B6 mRNA expression (CYP2B6 mRNA): significant fold induction
Compound: C[C@@H]1C[C@H]2[C@@H]3CCC4=CC(=O)C=C[C@]4(C)[C@@]3(F)[C@@H](O)C[C@]2(C)[C@@]1(O)C(=O)CO [Dexamethasone, dexamethasone]

Km (CYP2B6; human, pooled human liver microsomes): 15.1 µM
CLint (Vmax/Km) (CYP2B6; pooled HLM): 0.0240 μl/min/mg protein
Vmax (CYP2B6; pooled HLM, formation of 8-hydroxy efavirenz): 0.3576 pmol/min/mg protein
Compound: O=C1Nc2ccc(Cl)cc2[C@@](C#CC2CC2)(C(F)(F)F)O1 [EFV, efavirenz]

Compound: COc1ccc(-c2cc(=O)c3c(O)c(OC)c(OC)cc3o2)cc1O [Eupatorin, Eupatorin (3′,5-Dihydroxy-4′,6,7-trimethoxyflavone)]
inhibition of CYP1A2 (CYP1A2): inhibits

Compound: CCCCCCCC/C=C\CCCCCCCCNC(=O)/C=C/c1ccc(O)c(O)c1 [N-oleylcaffeamide]
inhibition of RT-associated activity of ribonuclease H and DNA polymerase [1]: strongly inhibited

Compound: CO[C@H]1/C=C/O[C@@]2(C)Oc3c(C)c(O)c4c(O)c(c(/C=N/N5CCN(C)CC5)c(O)c4c3C2=O)NC(=O)/C(C)=C\C=C\[C@H](C)[C@H](O)[C@@H](C)[C@@H](O)[C@@H](C)[C@H](OC(C)=O)[C@@H]1C [RIF, rifampicin]
CLint (Vmax/Km) (β-esterases): 0.0260 μl/min/mg protein
Vmax (β-esterases; formation of 25-O-desacetyl rifampicin): 1.2330 pmol/min/mg protein
Km (β-esterases; formation of 25-O-desacetyl rifampicin, 0–150 μM): 48.2 µM
Vmax (β-esterases; formation of 25-O-desacetyl rifampicin, listed as RIFAMPICIN): 1.233 pmol/min/mg protein

Compound: COc1ccc(-c2cc(=O)c3c(O)c(OC)c(OC)cc3o2)cc1 [Salvigenin, Salvigenin (5-Hydroxy-6,7,4′-trimethoxyflavone)]
inhibition of CYP3A enzymes (CYP3A enzymes): moderate inhibitor

Compound: Cc1c(O)cccc1C(=O)N[C@@H](CSc1ccccc1)[C@H](O)CN1C[C@H]2CCCC[C@H]2C[C@H]1C(=O)NC(C)(C)C [nelfinavir, nelfinavir mesylate hydrate]
inhibition at 0.5 h [2]: 30%
IC50 [3]: 2.7 µM
IC50 ([4]; HLM, 30 min pre-incubation with NADPH, rifampicin as substrate, read-out: TDI IC50 against rifampicin metabolism): 6.39 µM and 3.63 µg/mL
IC50 shift ([4]; rifampicin pathway, fold shift ≥1.5 classified positive for TDI, read-out: IC50 shift-fold, co-incubation IC50(-) / pre-incubation IC50(+)): > 1.5

Compound: CCCCCCCCCCCCCCOC(=O)/C=C/c1ccc(O)c(OC)c1 [tetradecyl ferulate]
IC50 ([1]; read-out: IC50, RNase H inhibition): 12.4 µM
